From PMC8043206 (ACS Pharmacology & Translational Science, 2021)

What follows are compounds tested on SARS-CoV-2-S pseudotyped particles. Conditions: Calu-3 cells.
Type: cell-based

| Compound | Activity on viral entry in PP entry assay (in words) |
| --- | --- |
| CCOC(=O)c1ccc(OC(=O)CCCCCNC(=N)N)cc1 [NCGC00025297, Gabexate] | did not exhibit an activity |
| N=C(N)c1ccc2cc(OC(=O)c3ccc(N=C(N)N)cc3)ccc2c1 [NCGC00160398, Nafamostat] | high potency and efficacy |
| CN(C)C(=O)COC(=O)Cc1ccc(OC(=O)c2ccc(NC(=N)N)cc2)cc1 [NCGC00167526, Camostat] | high potency and efficacy |
| COC(=O)[C@H](Cc1cccc(C(=N)N)c1)[C@@H](C)NC(=O)c1ccc(-c2cc[n+]([O-])cc2)cc1 [NCGC00378763, Otamixaban] | efficient activity |
| C=Cc1cc(C(=O)Nc2ccc(C(=N)N)cc2)c(-c2ccc(C(=O)NCC3CC3)nc2C(=O)O)cc1OC [NCGC00522636, Avoralstat] | comparable inhibition activity to camostat |
